From patent publication US20090082271A1, “AGENTS THAT REDUCE APOE-INDUCED IMPAIRMENT OF MITOCHONDRIA AND METHODS OF USE THEREOF” (priority 2005, published 2009) come the findings set out here.

“Also recorded” adds a separate entry of the source.

The test system of test [1] is differentiated PC12 cells. Briefly: Time-lapse fluorescence recording of mitochondrial motility and morphology in neurites of differentiated PC12 cells (dsRed2-Mito). Conditions: for mitochondrial motility increased: nimodipine 5 μM and AP5 50 μM together (both antagonists), with different forms of apoE; for reduction of percentage of motile mitochondria in response to neuronal activation: apoE 7.5 μg/ml 24 h, then repetitive depolarizations with KCl.

The subject of test [2] is rat primary cortical neurons.
Another test deals with Neuro-2a cells. The experiment in a line: MTT cell survival assay of Neuro-2a cells transiently transfected with apoE4 cDNA constructs. To be noted: expressed by transient transfection; 48 h after transfection; vs WT apoE4 / apoE4(1-272). Type of test: cell-based, mouse. As for the experimental part:
Cell Culture and Transfection. […] ApoE4 expression levels were determined by anti-apoE western blotting of cell lysates and media. […] Thus, the results are not due to overexpression.
Cell Survival. […] Cell survival was estimated with an MTT colorimetric assay (52) 48 h after transfection.
On the technique in general: Tetrazolium dyes change colour on reduction, which living cells bring about.

Test [3] deals with PC12 cells stably expressing various forms of apoE. Briefly: Mitochondrial dynamics in differentiated PC12 cells stably expressing various forms of apoE. To be noted: endogenous (stably expressed) apoE, ~200 pg apoE per μg cellular protein; vs control. In kind it is cell-based, rat.
Test [4] has as its system rat primary hippocampal neurons. In kind it is cell-based. Conditions: apoE 7.5 μg/ml, 24 h. From the text:
FIGS. 12A and 12B. […] Scale bar=5 μm.

The subject of another test is primary cortical neurons. The experiment in a line: Number, occupancy and size of mitochondria in dendrites of primary cortical neurons. To be noted: vs apoE3-treated cells or controls. In kind it is cell-based, rat.
[5] abbreviates: repetitive depolarization with KCl 90 mM.

Consider `NC(CCCP(=O)(O)O)C(=O)O` (stereo not drawn) [AP5, 2-amino-5-phosphonovalerate], for which the mitochondrial motility increased result in test [1] (24 h) is recorded as “about 30%”.

`[Cl-].[K+]` [KCl]: in test [1] (setting [5]), the “average moving velocity (anterograde direction)” value is reported as “drastically reduced”, the “mitochondrial moving velocity (distance/time moving)” value is listed as “unaltered; also recorded: did not affect”, the “net moving distance (anterograde direction)” value is recorded as “drastically reduced” and the retrograde motility result is recorded as “No significant changes”. Besides, the mitochondrial index reduced in test [1] (repetitive depolarizations with KCl (4×, 90 mM)) was found to be 22.5%.

For `NC1=N[C@H](O)[C@H]2[C@H]3O[C@]4(O)O[C@@H]([C@@H](O)[C@@]2(N1)[C@@H]4O)[C@]3(O)CO` [TTX, tetrodotoxin], the “differences in dendritic spine density between forms of apoE in the presence of TTX” value in test [2] is listed as “No significant differences”. Also, in test [1], the “differences in mitochondrial dynamics between forms of apoE in the presence of TTX” value was “No significant differences”, the mitochondrial dynamics result is “increased” and the mitochondrial index entry is “without affecting; also recorded: not affected”.

Take `COCCOC(=O)C1=C(C)NC(C)=C(C(=O)OC(C)C)C1c1cccc([N+](=O)[O-])c1` (stereo not drawn) [nimodipine]: the mitochondrial motility increased result in test [1] (24 h) was “about 30%”.

In the case of “L279Q: full-length WT apoE4 with single mutation L279Q”, the “neurotoxicity (cell survival, MTT assay)” value in the test on Neuro-2a cells is “as neurotoxic as apoE4(1-272)”.

As to “Q284A: full-length WT apoE4 with single mutation Q284A”, the “neurotoxicity (cell survival, MTT assay)” value in the test on Neuro-2a cells is “as neurotoxic as apoE4(1-272)”.

Take “aa241-272 of apoE4: lipid binding region alone of apoE4 (AKLEEQAQQIRLQAEAFQARLKSWFEPLVEDM; UniProt P02649 259-290, looked up, fragment)”: the “neurotoxicity (cell survival, MTT assay)” value with Neuro-2a cells was “No neurotoxicity was observed”.

Take “apoE3: recombinant apolipoprotein E3 isoform; also stably expressed in PC12 cells”: the “density of dendritic spines increased vs controls” value in test [2] (apoE 7.5 μg/ml, 24 h) turned out to be 20±6%; in test [4], 11±4%. For the same compound, in test [3], the “percentage of motile mitochondria reduced” value is listed as “unaffected”. Further, the “reduction of percentage of motile mitochondria in response to neuronal activation” value in test [1] was 58±6%. Further, the “average length of mitochondria” value in test [1] (exogenous apoE 7.5 μg/ml, 24 h) is on record as “did not”. Besides, the “mitochondrial motility / dynamics overall” value in test [1] (exogenous apoE 7.5 μg/ml, 24 h) was “not affected”; in test [1] (exogenous apoE 7.5 μg/ml, 24 h, listed as ApoE3) it was “did not alter mitochondrial dynamics significantly”.

In the case of “apoE4: full-length human apolipoprotein E4 (SEQ ID NO:1); expressed from cDNA or added as recombinant protein”, the “spinal density reduced in response to neuronal activation, compared to controls” value in test [2] (apoE 7.5 μg/ml 24 h, repetitive KCl depolarization) is recorded as 48±11%. Besides, in test [2] (apoE 7.5 μg/ml, 24 h), the “density of dendritic spines decreased vs controls” value is given as 13±5% and the “density of dendritic spines reduced compared with apoE3” value is given as 27±5%. Further, in the test with primary cortical neurons, the “number of mitochondria in dendritic spines” value is on record as “many fewer mitochondria”. Moreover, the “reduction of percentage of motile mitochondria in response to neuronal activation” value in test [1] turned out to be 30%. In test [1] (exogenous apoE 7.5 μg/ml, 24 h), the “average length of mitochondria” value was “significantly reduced” and the retrograde velocity result was “unaffected”. Moreover, in test [4], the “density of dendritic spines decreased vs controls” value is listed as 19±5% and the “density of dendritic spines reduced compared with apoE3” value turned out to be 28±4%.
